Like-named read-outs stand apart in the source and are kept apart here.
Experiments:
Type in all cases: cell-based, human
HTT mRNA = assay: RT-qPCR splicing assay, HTT canonical (CJ) and alternative (AJ) junction mRNA; conditions: for AC50: read-out: HTT AJ (AC50, increase in AJ mRNA)
Description: (§1) Compounds described herein were used to modulate RNA transcript abundance in cells. The expression of a target mRNA was measured by detecting the formation of an exon-exon junction in the canonical transcript (CJ). A compound mediated exon-inclusion event was detected by observing an increase in formation of a new junction with an alternative exon (AJ). Real-time qPCR assays were used to detect these splicing switches and interrogate the potency of various compounds towards different target genes. A high-throughput real time quantitative PCR (RT-qPCR) assay was developed to measure these two isoforms of the mRNA (CJ and AJ) for exemplary genes, such as HTT, SMN2, and MYB, together with a control housekeeping gene, GAPDH or GUSB or PPIA, used for normalization. Briefly, the A673 or K562 cell line was treated with various compounds described herein (e.g., compounds of Formula (I), (II), (III), (IV)). After treatment, the levels of the HTT, MYB, or SMN2 mRNA targets were determined from each sample of cell lysate by cDNA synthesis followed by qPCR.
(§2) The A673 cell line was cultured in DMEM with 10% FBS. Cells were diluted with full growth media and plated in a 96-well plate (15,000 cells in 100ul media per well). The plate was incubated at 37° C. with 5% CO2 for 24 hours to allow cells to adhere. An 11-point 3-fold serial dilution of the compounds was made in DMSO then diluted in media in an intermediate plate. Compounds were transferred from the intermediate plate to the cell plate with the top dose at a final concentration of 10 uM in the well. Final DMSO concentration was kept at or below 0.25%. The cell plate was returned to the incubator at 37° C. with 5% CO2 for an additional 24 hours.
(§3) The K562 cell line was cultured in IMDM with 10% FBS. For K562, cells were diluted with full growth media and plated in either a 96-well plate (50,000 cells in 50 uL media per well) or a 384-well plate (8,000-40,000 cells in 45 uL media per well). An 11-point 3-fold serial dilution of the compounds were made in DMSO then diluted in media in an intermediate plate.
(§4) Compound was transferred from the intermediate plate to the cell plate with the top dose at a final concentration of 10 uM in the well. Final DMSO concentration was kept at or below 0.25%.
(§5) Final volume was 100 uL for 96-well plate and 50 uL for 384-well plate. The cell plate was then placed in an incubator at 37° C. with 5% CO2 for 24 hours.
(§6) The cells were then gently washed with 50 uL-100 uL cold PBS before proceeding to addition of lysis buffer. 30 uL-50 μL of room temperature lysis buffer with DNAse I (and optionally RNAsin) was added to each well. Cells were shaken/mixed thoroughly at room temperature for 5-10 minutes for lysis to take place and then 3 uL-5 μL of room temperature stop solution was added and wells were shaken/mixed again. After 2-5 minutes, the cell lysate plate was transferred to ice for RT-qPCR reaction setup. The lysates could also be frozen at −80° C. for later use.
(§7) In some cases, a direct lysis buffer was used. An appropriate volume of 3× lysis buffer (10 mM Tris, 150 mM NaCl, 1.5%-2.5% Igepal and 0.1-1 U/uL RNAsin, pH 7.4) was directly added to either K562 or A673 cells in media and mixed by pipetting 3 times. The plates were then incubated at room temperature with shaking/rocking for 20-50 minutes to allow for lysis to take place. After this time, the cell lysate plate was transferred to ice to set up for the RT-qPCR reactions. The lysates could also be frozen at −80° C. for later use.
(§8) To set up 10 uL RT-qPCR reactions, cell lysates were transferred to 384-well qPCR plates containing the master mix according to the table below. The plates were sealed, gently vortexed, and spun down before the run. The volumes were adjusted accordingly in some instances where the reaction was carried in 20 μL. The table below summarizes the components of the RT-qPCR reactions: […]

MYB mRNA = assay: RT-qPCR splicing assay, MYB canonical (CJ) and alternative (AJ) junction mRNA; conditions: for AC50: read-out: MYB AJ (AC50, increase in AJ mRNA)
Description: as §1, §2, §3, §4, §5, §6, §7, §8

Target C mRNA = assay: RT-qPCR splicing assay panel, Target C canonical junction (CJ) mRNA; conditions: Homo sapiens, canonical junction (CJ) mRNA, RT-qPCR panel, Table 4A; read-out: Target C, decrease in CJ mRNA levels, IC50
Description: as §1, §2, §3, §4, §5, §6, §7, §8

SMN2 mRNA = assay: RT-qPCR splicing assay panel, SMN2 canonical junction (CJ) mRNA; conditions: canonical junction (CJ) mRNA, RT-qPCR panel, Table 4A, read-out: SMN2, decrease in CJ mRNA levels, IC50
Description: as §1, §2, §3, §4, §5, §6, §7, §8

[1] = Homo sapiens, 24 h, Table 3A, A673 or K562 cells, 24 h treatment
[2] = Homo sapiens, 24 h, Table 3A, A673 or K562 cells, 24 h treatment, read-out: HTT CJ (IC50, decrease in CJ mRNA)
[3] = Homo sapiens, canonical junction (CJ) mRNA, RT-qPCR panel, Table 4A, read-out: HTT, decrease in CJ mRNA levels, IC50
[4] = Homo sapiens, 24 h, Table 3A, A673 or K562 cells, 24 h treatment, read-out: MYB CJ (IC50, decrease in CJ mRNA)
[5] = Homo sapiens, canonical junction (CJ) mRNA, RT-qPCR panel, Table 4A, read-out: MYB, decrease in CJ mRNA levels, IC50
[6] = Table 3A, A673 or K562 cells, 24 h treatment, read-out: MYB CJ (IC50, decrease in CJ mRNA)

Row | Structure (SMILES) | IC50 (HTT mRNA; [2]) | IC50 (HTT mRNA; [3]) | IC50 (MYB mRNA; [4]) | IC50 (MYB mRNA; [5]) | IC50 (Target C mRNA) | IC50 (SMN2 mRNA; Homo sapiens) | IC50 (HTT mRNA; Table 3A, A673 or K562 cells, 24 h treatment, read-out: HTT CJ (IC50, decrease in CJ mRNA)) | IC50 (MYB mRNA; [6]) | IC50 (SMN2 mRNA) | AC50 (HTT mRNA; [1]) | AC50 (MYB mRNA; [1]) | AC50 (MYB mRNA; Table 3A, A673 or K562 cells, 24 h treatment)
1 | COc1cc(-c2cc(O)c(-c3ccc(N4CC[C@@H](N[C@H]5C[C@@H](F)C5)C4)nn3)cc2F)cnn1 (racemic) [Compound 161, 4-fluoro-5-(6-methoxypyridazin-4-yl)-2-[6-(3-{[(1s,3s)-3-fluorocyclobutyl]amino}pyrrolidin-1-yl)pyridazin-3-yl]phenol] | 100 to 1000 nM | 100 to 1000 nM | 100 to 1000 nM | 100 to 1000 nM | 100 to 1000 nM | < 100 nM | – | – | – | 100 to 1000 nM | 100 to 1000 nM | –
2 | Cn1cnc(-c2ccc(-c3ccc(N4CC[C@H](NC(C)(C)C)C4)nn3)c(O)c2)cc1=O [Compound 236, 6-(4-{6-[(3S)-3-(tert-butylamino)pyrrolidin-1-yl]pyridazin-3-yl}-3-hydroxyphenyl)-3-methylpyrimidin-4-one] | 100 to 1000 nM | – | 100 to 1000 nM | – | – | – | – | – | – | 100 to 1000 nM | 100 to 1000 nM | –
3 | COc1cc(-c2ccc(-c3ccc(N4CC[C@@H](N(C)C5CCC5)C4)nn3)c(O)c2)cnn1 [Compound 238, 2-{6-[(3R)-3-[cyclobutyl(methyl)amino]pyrrolidin-1-yl]pyridazin-3-yl}-5-(6-methoxypyridazin-4-yl)phenol] | < 100 nM | – | 100 to 1000 nM | – | – | – | – | – | – | 100 to 1000 nM | 100 to 1000 nM | –
4 | COc1cc(-c2ccc(-c3ccc(N4CC[C@H](N(C)C5CCC5)C4)nn3)c(O)c2)cnn1 [Compound 239] | < 100 nM | – | 100 to 1000 nM | – | – | – | – | – | – | < 100 nM | 100 to 1000 nM | –
5 | COc1cc(-c2ccc(-c3ccc(N4CC[C@H](NC5(CF)CC5)C4)nn3)c(O)c2)cnn1 [Compound 241, 2-{6-[(3S)-3-{[1-(fluoromethyl)cyclopropyl]amino}pyrrolidin-1-yl]pyridazin-3-yl}-5-(6-methoxypyridazin-4-yl)phenol] | < 100 nM | – | 100 to 1000 nM | – | – | – | – | – | – | 100 to 1000 nM | 100 to 1000 nM | –
6 | COc1cc(-c2ccc(-c3ccc(N4CC[C@@H](NC5(CF)CC5)C4)nn3)c(O)c2)cnn1 [Compound 242, 2-{6-[(3R)-3-{[1-(fluoromethyl)cyclopropyl]amino}pyrrolidin-1-yl]pyridazin-3-yl}-5-(6-methoxypyridazin-4-yl)phenol] | < 100 nM | – | 100 to 1000 nM | – | – | – | – | – | – | 100 to 1000 nM | 100 to 1000 nM | –
7 | Cc1ncc(-c2cc(O)c(-c3ccc(N4CC[C@H](N[C@H](C)C5CC5)C4)nn3)cc2F)s1 [Compound 394] | – | – | – | – | – | – | < 100 nM | < 100 nM | < 100 nM | – | – | < 100 nM
8 | Cc1nnc(-c2ccc(-c3ccc(N4CC[C@@H](NCC5CC5)C4)nn3)c(O)c2)s1 [Compound 416] | – | – | – | – | – | – | – | 100 to 1000 nM | < 100 nM | – | – | –

Continued, in another order:

Row | IC50 (HTT mRNA; [2]) | IC50 (HTT mRNA; [3]) | IC50 (MYB mRNA; [4]) | IC50 (MYB mRNA; [5]) | IC50 (Target C mRNA) | IC50 (SMN2 mRNA; Homo sapiens) | IC50 (HTT mRNA; Table 3A, A673 or K562 cells, 24 h treatment, read-out: HTT CJ (IC50, decrease in CJ mRNA)) | IC50 (MYB mRNA; [6]) | IC50 (SMN2 mRNA) | Structure (SMILES) | AC50 (HTT mRNA; [1]) | AC50 (MYB mRNA; [1]) | AC50 (MYB mRNA; Table 3A, A673 or K562 cells, 24 h treatment)
9 | < 100 nM | < 100 nM | 1000 to 10000 nM | 1000 to 10000 nM | 100 to 1000 nM | < 100 nM | – | – | – | COc1cc(-c2cc(O)c(-c3ccc(N4CC[C@@](C)(NC5CCC5)C4)nn3)cc2F)cnn1 (single isomer, unassigned) [Compound 308, 2-{6-[3-(cyclobutylamino)-3-methylpyrrolidin-1-yl]pyridazin-3-yl}-4-fluoro-5-(6-methoxypyridazin-4-yl)phenol] | 100 to 1000 nM | 100 to 1000 nM | –
10 | < 100 nM | < 100 nM | 1000 to 10000 nM | 1000 to 10000 nM | 100 to 1000 nM | < 100 nM | – | – | – | COc1cc(-c2cc(O)c(-c3ccc(N4CC[C@](C)(NC5CCC5)C4)nn3)cc2F)cnn1 (single isomer, unassigned) [Compound 309, 2-{6-[3-(cyclobutylamino)-3-methylpyrrolidin-1-yl]pyridazin-3-yl}-4-fluoro-5-(6-methoxypyridazin-4-yl)phenol] | 100 to 1000 nM | 1000 to 10000 nM | –
11 | < 100 nM | < 100 nM | 100 to 1000 nM | 100 to 1000 nM | < 100 nM | < 100 nM | – | – | – | Cc1ncc(-c2cc(O)c(-c3ccc(N4CC[C@@](C)(NCC5CC5)C4)nn3)cc2F)s1 (single isomer, unassigned) [Compound 399] | < 100 nM | 100 to 1000 nM | –
12 | < 100 nM | < 100 nM | 100 to 1000 nM | 100 to 1000 nM | < 100 nM | < 100 nM | – | – | – | Cc1ncc(-c2cc(O)c(-c3ccc(N4CC[C@](C)(NCC5CC5)C4)nn3)cc2F)s1 (single isomer, unassigned) [Compound 400] | < 100 nM | 100 to 1000 nM | –
13 | < 100 nM | < 100 nM | 100 to 1000 nM | 100 to 1000 nM | 100 to 1000 nM | < 100 nM | – | – | – | Cc1ncc(-c2ccc(-c3ccc(N4CC[C@](C)(NCC5CC5)C4)nn3)c(O)c2)s1 (single isomer, unassigned) [Compound 438] | 100 to 1000 nM | 100 to 1000 nM | –
14 | < 100 nM | < 100 nM | 100 to 1000 nM | 100 to 1000 nM | < 100 nM | < 100 nM | – | – | – | Cc1ncc(-c2ccc(-c3ccc(N4CC[C@@](C)(NCC5CC5)C4)nn3)c(O)c2)s1 (single isomer, unassigned) [Compound 439] | < 100 nM | 100 to 1000 nM | –
15 | < 100 nM | – | < 100 nM | – | – | – | – | – | – | COc1cc(-c2cc(O)c(-c3ccc(N4CC[C@H](N(C)C(C)(C)C)C4)nn3)cc2F)cnn1 [Compound 234, 2-{6-[(3S)-3-[tert-butyl(methyl)amino]pyrrolidin-1-yl]pyridazin-3-yl}-4-fluoro-5-(6-methoxypyridazin-4-yl)phenol] | < 100 nM | < 100 nM | –
16 | < 100 nM | – | 100 to 1000 nM | – | – | – | – | – | – | COc1cc(-c2cc(O)c(-c3ccc(N4CC[C@@H](N(C)C(C)(C)C)C4)nn3)cc2F)cnn1 [Compound 235, 2-{6-[(3R)-3-[tert-butyl(methyl)amino]pyrrolidin-1-yl]pyridazin-3-yl}-4-fluoro-5-(6-methoxypyridazin-4-yl)phenol] | < 100 nM | 100 to 1000 nM | –
17 | < 100 nM | – | 100 to 1000 nM | – | – | – | – | – | – | Cn1cnc(-c2ccc(-c3ccc(N4CC[C@@H](NC(C)(C)C)C4)nn3)c(O)c2)cc1=O [Compound 237, 6-(4-{6-[(3R)-3-(tert-butylamino)pyrrolidin-1-yl]pyridazin-3-yl}-3-hydroxyphenyl)-3-methylpyrimidin-4-one] | < 100 nM | 100 to 1000 nM | –

Source: patent US20250333397A1 (REMIX THERAPEUTICS INC., priority 2021, published 2025)
